Where only a bound is given, the exact number is not on record here.

Test [1] concerns the target T1, BRD4 (BDI_K57-E168) (Homo sapiens, UniProt O60885).
T1 construct: BD1: amino acids K57-E168; made in house
Nature of the test: TR-FRET bromodomain binding assay, first bromodomain of BRD4. The note with it: 100 nM probe. The procedure, abridged:
(§1)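 Probe displacement by TR-FRET: 8 nM His-BRD4 bromodomain, 1 nM Eu-anti-His, Alexa647 BET-inhibitor probe at 100 nM (BDI) or 30 nM (BDII); 20 mM Na phosphate pH 6.0, 2% DMSO; 1 h RT. Ex 340, Em 495/520. IC50 from 4PL fit; Ki from IC50, probe Kd and probe concentration.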
For orientation: TR-FRET usually uses a lanthanide donor and a delayed reading to cut background.

For test [2], the target named is T2, BRD4 (BDII_E352-M457) (Homo sapiens, UniProt O60885).
T2 construct: protocol; made in house
Nature of the test: TR-FRET bromodomain binding assay, second bromodomain of BRD4. The following applies: 30 nM probe. The essentials:
as §1

Test [3] relates to breast cancer cell line MX-1. Nature of the test: MX-1 cell line proliferation assay. The note with it: MX-1 cells, 3-day proliferation assay, Cell Titer Glo; read-out: Cellular proliferation: EC50. The format is cell-based. The essentials: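 MX-1 cells at 5000/well, in RPMI 1640 with 10% FBS, were exposed to compounds for 3 days. Final concentrations ranged 3 μM–0.1 nM or 1 μM–0.03 nM, in 3-fold steps. Cell Titer Glo luminescence was normalized to DMSO and fitted sigmoidally for EC50; overall MSR 2.1.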
(In general: Cellular ATP, detected with luciferase, serves as a proxy for viable cell number.)

Where [4] appears, read: TR-FRET assay protocol G (compound 0.92 μM-15 pM).
Where [5] appears, read: TR-FRET assay protocol E (compound 9.19 μM-150 pM).

In the case of `Cn1cc2c3c(c[nH]c3c1=O)CN(C(=O)CC(C)(C)C)c1ccc(CS(C)(=O)=O)cc1-2` [Example 107, 4-(3,3-dimethylbutanoyl)-10-methyl-7-((methylsulfonyl)methyl)-3,4-dihydro-1H-1,4,10-triazadibenzo[cd,f]azulen-11(10H)-one], the Ki (commonly a measure of affinity in units of concentration, obtained from inhibition or displacement) in test [1] (setting [4]) turned out to be 6.42 nM; in test [2] (setting [4]), 3.79 nM. Also, the EC50 in test [3] is 7.04 nM.
For `Cn1cc2c3c(c[nH]c3c1=O)[C@@H](c1ccccc1)N(c1ccc(F)cc1F)c1ccc(CS(C)(=O)=O)cc1-2` (single isomer, unassigned) [Example 215], the Ki in test [1] (setting [4]) came out at 65.7 nM; in test [2] (setting [4]), 5.87 nM. The EC50 in test [3] was 454 nM.
As for `CNC(=O)c1cc(CS(C)(=O)=O)cc2c1N(c1ccc(F)cc1F)Cc1c[nH]c3c(=O)n(C)cc-2c13` [Example 241, 4-(2,4-difluorophenyl)-N,10-dimethyl-7-((methylsulfonyl)methyl)-11-oxo-3,4,10,11-tetrahydro-1H-1,4,10-triazadibenzo[cd,f]azulene-5-carboxamide], the Ki in test [1] (setting [4]) came out at 3.07 nM; in test [2] (setting [4]) it was 1.76 nM. Further, the EC50 in test [3] stood at 51.5 nM.
As to “4-([1,1′-biphenyl]-4-carbonyl)-10-methyl-7-((methylsulfonyl)methyl)-3,4-dihydro-1H-1,4,10-triazadibenzo[cd,f]azulen-11(10H)-one [Example 102]”, the Ki was 9.41 nM in test [1] (setting [4]) and 26.9 nM in test [2] (setting [4]). Moreover, the EC50 in test [3] was determined as 151 nM.
`Cn1cc2c3c(c[nH]c3c1=O)CN(c1ccc(Cl)cn1)c1ccc(CS(C)(=O)=O)cc1-2` [Example 245, 4-(5-chloropyridin-2-yl)-10-methyl-7-((methylsulfonyl)methyl)-3,4-dihydro-1H-1,4,10-triazadibenzo[cd,f]azulen-11(10H)-one]: the Ki in test [1] (setting [4]) worked out at 0.54 nM; in test [2] (setting [4]) it was 0.94 nM. Moreover, the EC50 in test [3] amounted to 1.09 nM.
For `COC(=O)NC1CCC(N2Cc3c[nH]c4c(=O)n(C)cc(c34)-c3cc(CS(C)(=O)=O)ccc32)CC1` (stereo not drawn) [Example 226, methyl ((cis)-4-(10-methyl-7-((methylsulfonyl)methyl)-11-oxo-10,11-dihydro-1H-1,4,10-triazadibenzo[cd,f]azulen-4(3H)-yl)cyclohexyl)carbamate], the Ki in test [1] (setting [4]) worked out at 3.84 nM; in test [2] (setting [4]), 1.86 nM. Moreover, in test [3], the EC50 came to 7.82 nM.
`Cn1cc2c3c(c[nH]c3c1=O)CN(c1ccc(F)cc1F)c1c(C(N)=O)cc(CS(C)(=O)=O)cc1-2` [Example 240, 4-(2,4-difluorophenyl)-10-methyl-7-((methylsulfonyl)methyl)-11-oxo-3,4,10,11-tetrahydro-1H-1,4,10-triazadibenzo[cd,f]azulene-5-carboxamide]: the Ki is 3.14 nM in test [1] (setting [4]) and 1.93 nM in test [2] (setting [4]). In addition, the EC50 in test [3] worked out at 85.9 nM.
The matching figures for `CCCCNC(=O)C1c2c[nH]c3c(=O)n(C)cc(c23)-c2cc(CS(C)(=O)=O)ccc2N1c1ccc(F)cc1F` (stereo not drawn) [Example 157, N-butyl-4-(2,4-difluorophenyl)-10-methyl-7-((methylsulfonyl)methyl)-11-oxo-3,4,10,11-tetrahydro-1H-1,4,10-triazadibenzo[cd,f]azulene-3-carboxamide]: 39.6 nM, 23.9 nM and 77.4 nM.
Take `Cn1cc2c3c(c[nH]c3c1=O)CN(S(=O)(=O)C1CC1)c1ccc(CS(C)(=O)=O)cc1-2` [Example 172, 4-(cyclopropylsulfonyl)-10-methyl-7-((methylsulfonyl)methyl)-3,4-dihydro-1H-1,4,10-triazadibenzo[cd,f]azulen-11(10H)-one]: the Ki in test [1] (setting [4]) was 57.8 nM; in test [2] (setting [4]), 12.8 nM. Besides, in test [3], the EC50 is 551 nM.
Take `COC(=O)NC1CCC(N2Cc3c[nH]c4c(=O)n(C)cc(c34)-c3cc(CS(C)(=O)=O)ccc32)CC1` (stereo not drawn) [Example 225, methyl ((trans)-4-(10-methyl-7-((methylsulfonyl)methyl)-11-oxo-10,11-dihydro-1H-1,4,10-triazadibenzo[cd,f]azulen-4(3H)-yl)cyclohexyl)carbamate]: the Ki in test [1] (setting [4]) was determined as 3.25 nM; in test [2] (setting [4]), 2.39 nM. Further, the EC50 in test [3] turned out to be 12.2 nM.
For the molecule `CCCCN1Cc2c[nH]c3c(=O)n(C)cc(c23)-c2cc(F)cc(F)c21` [Example 47, 4-butyl-5,7-difluoro-10-methyl-3,4-dihydro-1H-1,4,10-triazadibenzo[cd,f]azulen-11(10H)-one], the Ki in test [1] (setting [4]) worked out at 1.37 nM; in test [2] (setting [4]), 1.27 nM. Moreover, the EC50 in test [3] worked out at 8.33 nM.
`COc1ccc(NC(=O)N2Cc3c[nH]c4c(=O)n(C)cc(c34)-c3cc(CS(C)(=O)=O)ccc32)cc1` [Example 62, N-(4-methoxyphenyl)-10-methyl-7-((methylsulfonyl)methyl)-11-oxo-10,11-dihydro-1H-1,4,10-triazadibenzo[cd,f]azulene-4(3H)-carboxamide]: the values for the Ki in test [1] (setting [4]) and in test [2] (setting [4]) were 7.23 nM and 4.73 nM, respectively. Also, the EC50 in test [3] was found to be 910 nM.
For `Cn1cc2c3c(c[nH]c3c1=O)C(c1cccc3ccccc13)N(c1ccc(F)cc1F)c1ccc(CS(C)(=O)=O)cc1-2` (stereo not drawn) [Example 217, 4-(2,4-difluorophenyl)-10-methyl-7-((methylsulfonyl)methyl)-3-(naphthalen-1-yl)-3,4-dihydro-1H-1,4,10-triazadibenzo[cd,f]azulen-11(10H)-one], the Ki in test [1] (setting [4]) was found to be 193 nM; in test [2] (setting [4]), 42.6 nM. The EC50 in test [3] is above 1000 nM.
For the molecule `Cn1cc2c3c(c[nH]c3c1=O)C(Cc1ccccc1)Nc1ccc(CS(C)(=O)=O)cc1-2` (stereo not drawn) [Example 16, 3-benzyl-10-methyl-7-((methylsulfonyl)methyl)-3,4-dihydro-1H-1,4,10-triazadibenzo[cd,f]azulen-11(10H)-one], the Ki turned out to be 92.6 nM in test [1] (setting [5]) and 18.9 nM in test [2] (setting [5]). Besides, in test [3], the EC50 turned out to be 337 nM.
In the case of `Cn1cc2c3c(c[nH]c3c1=O)C(C(=O)NCC1CC1)N(c1ccc(F)cc1F)c1ccc(CS(C)(=O)=O)cc1-2` (stereo not drawn) [Example 164, N-(cyclopropylmethyl)-4-(2,4-difluorophenyl)-10-methyl-7-((methylsulfonyl)methyl)-11-oxo-3,4,10,11-tetrahydro-1H-1,4,10-triazadibenzo[cd,f]azulene-3-carboxamide], the Ki was 41.7 nM in test [1] (setting [4]) and 30 nM in test [2] (setting [4]). Also, the EC50 in test [3] worked out at 72.5 nM.
Regarding “tert-butyl 4-(4-(4-fluorophenyl)-10-methyl-7-((methylsulfonyl)methyl)-11-oxo-3,4,10,11-tetrahydro-1H-1,4,10-triazadibenzo[cd,f]azulene-3-carbonyl)piperazine-1-carboxylate [Example 35]”, the Ki worked out at 35.5 nM in test [1] (setting [4]) and 95.1 nM in test [2] (setting [4]). Moreover, in test [3], the EC50 was found to be 331 nM.
For the molecule `CC(C)c1ccc(NC(=O)N2Cc3c[nH]c4c(=O)n(C)cc(c34)-c3cc(CS(C)(=O)=O)ccc32)cc1` [Example 69, N-(4-isopropylphenyl)-10-methyl-7-((methylsulfonyl)methyl)-11-oxo-10,11-dihydro-1H-1,4,10-triazadibenzo[cd,f]azulene-4(3H)-carboxamide], the values for the Ki in test [1] (setting [4]) and in test [2] (setting [4]) were 3.25 nM and 3.24 nM, respectively. In test [3], the EC50 was determined as 43.1 nM.
For the molecule `Cn1cc2c3c(c[nH]c3c1=O)CN(C(=O)C1CC1)c1ccc(CS(C)(=O)=O)cc1-2` [Example 115, 4-(cyclopropanecarbonyl)-10-methyl-7-((methylsulfonyl)methyl)-3,4-dihydro-1H-1,4,10-triazadibenzo[cd,f]azulen-11(10H)-one], the Ki turned out to be 8.7 nM in test [1] (setting [4]) and 2.71 nM in test [2] (setting [4]). In test [3], the EC50 amounted to 7.83 nM.
Take `Cn1cc2c3c(c[nH]c3c1=O)C(c1cccc(-c3ccccn3)c1)N(c1ccc(F)cc1F)c1ccc(CS(C)(=O)=O)cc1-2` (racemic) [Example 236, 4-(2,4-difluorophenyl)-10-methyl-7-((methylsulfonyl)methyl)-3-(3-(pyridin-2-yl)phenyl)-3,4-dihydro-1H-1,4,10-triazadibenzo[cd,f]azulen-11(10H)-one]: the Ki is 85.9 nM in test [1] (setting [4]) and 30 nM in test [2] (setting [4]). Further, the EC50 in test [3] is above 1000 nM.
Regarding `Cn1cc2c3c(c[nH]c3c1=O)CN(C1CCC(NC(=O)OC(C)(C)C)CC1)c1ccc(S(C)(=O)=O)cc1-2` (stereo not drawn) [Example 170, tert-butyl ((trans)-4-(10-methyl-7-(methylsulfonyl)-11-oxo-10,11-dihydro-1H-1,4,10-triazadibenzo[cd,f]azulen-4(3H)-yl)cyclohexyl)carbamate], the Ki is 7.07 nM in test [1] (setting [4]) and 25.2 nM in test [2] (setting [4]). Moreover, the EC50 in test [3] was 57.6 nM.
For “3-(4-(2,4-difluorophenyl)-10-methyl-7-((methylsulfonyl)methyl)-11-oxo-3,4,10,11-tetrahydro-1H-1,4,10-triazadibenzo[cd,f]azulen-3-yl)propanamide [Example 99]”, the Ki in test [1] (setting [4]) was 15.5 nM; in test [2] (setting [4]) it was 1.66 nM. Further, in test [3], the EC50 is 165 nM.
